We go through five molecules from patent US20090054417A1, “COMPOUNDS AND COMPOSITIONS AS MODULATORS OF STEROID HORMONE NUCLEAR RECEPTORS” (IRM LLC, priority 2004, published 2009).

Assay type in all cases: cell-based
The target in one assay is T1, AR (Homo sapiens, UniProt P10275).
T1 sequence (P10275 1-920 Q868H): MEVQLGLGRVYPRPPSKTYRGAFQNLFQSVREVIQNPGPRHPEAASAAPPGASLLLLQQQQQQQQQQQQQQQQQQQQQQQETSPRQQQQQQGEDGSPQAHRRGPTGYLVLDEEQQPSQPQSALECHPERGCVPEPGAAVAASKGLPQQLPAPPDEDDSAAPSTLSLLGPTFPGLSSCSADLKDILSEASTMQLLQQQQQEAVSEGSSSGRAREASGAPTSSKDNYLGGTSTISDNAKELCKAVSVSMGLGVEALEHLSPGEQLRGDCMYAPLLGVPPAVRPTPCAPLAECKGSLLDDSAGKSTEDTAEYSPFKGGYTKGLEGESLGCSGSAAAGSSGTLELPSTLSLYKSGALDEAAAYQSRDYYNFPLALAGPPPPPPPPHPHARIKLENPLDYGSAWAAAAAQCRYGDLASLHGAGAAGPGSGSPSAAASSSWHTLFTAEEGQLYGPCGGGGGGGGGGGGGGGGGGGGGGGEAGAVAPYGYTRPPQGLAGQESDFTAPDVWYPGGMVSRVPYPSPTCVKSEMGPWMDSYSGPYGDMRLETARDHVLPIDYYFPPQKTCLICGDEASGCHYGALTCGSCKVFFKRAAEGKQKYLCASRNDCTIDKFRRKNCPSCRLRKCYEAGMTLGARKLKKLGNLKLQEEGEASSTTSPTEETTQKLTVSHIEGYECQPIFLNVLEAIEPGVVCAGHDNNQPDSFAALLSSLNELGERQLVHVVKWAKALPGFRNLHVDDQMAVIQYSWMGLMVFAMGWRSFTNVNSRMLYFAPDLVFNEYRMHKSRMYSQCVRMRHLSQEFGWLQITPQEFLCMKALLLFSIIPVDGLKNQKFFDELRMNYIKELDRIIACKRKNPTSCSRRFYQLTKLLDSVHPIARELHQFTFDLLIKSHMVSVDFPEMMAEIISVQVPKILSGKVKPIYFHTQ
In words: Functional assay of androgen receptor antagonism (MMTV luciferase reporter in MDA-kb2 cells, dihydrotestosterone-stimulated). As to conditions: antagonism of AR trans-activation induced by 0.3 nM dihydrotestosterone. The method, then:
The AR antagonist activity of the compounds is determined with the MDA-Kb2 cell line (ATCC), which stably expresses the MMTV luciferase reporter. The MMTV promoter is a mouse mammary tumor virus promoter that contains androgen receptor response elements. […] Upon stimulation with AR ligands, such as dihydrotestosterone, the MMTV luciferase reporter can be activated.
The assay is performed in 384 well plates. Briefly, MDA-kb2 cells are plated in 384 well plates at a density of approximately 2.4×10^4 cells/well in 50 μl medium. The medium is supplemented with 5% charcoal-dextran treated fetal bovine serum (Hyclone). Twenty four hours later, compounds prepared in DMSO are transferred to the cells. The cells are then stimulated with 0.3 nM final concentration of dihydrotestosterone (Sigma) and incubated at 37° C. for another 24 hours before the luciferase activity is assayed with 20 μl of Bright-Glo (Promega) using a luminometer (CLIPR). The expression of luciferase is used as an indicator of dihydrotestosterone-induced AR trans-activation. Each compound is tested in duplicates with a 12-concentration titration. IC50 values (defined as the concentration of test compound required to antagonize 50% of dihydrotestosterone-induced AR activity) are determined from the dose-response curve.

Another assay concerns the target T2, MR (Homo sapiens, UniProt P08235).
T2 construct: expressed in transfected cells; host or cells: 293T cells
T2 sequence (P08235 672-984): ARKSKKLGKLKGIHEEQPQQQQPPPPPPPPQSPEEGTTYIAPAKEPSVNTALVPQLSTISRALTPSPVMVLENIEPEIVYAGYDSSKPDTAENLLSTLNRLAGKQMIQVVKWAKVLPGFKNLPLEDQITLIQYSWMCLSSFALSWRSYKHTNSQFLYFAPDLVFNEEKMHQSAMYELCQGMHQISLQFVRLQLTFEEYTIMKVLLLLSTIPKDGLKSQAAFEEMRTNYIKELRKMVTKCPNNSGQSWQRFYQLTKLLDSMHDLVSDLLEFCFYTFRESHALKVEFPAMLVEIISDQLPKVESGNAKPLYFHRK
The experiment in a line: Functional assay of mineralocorticoid receptor antagonism (mammalian two hybrid luciferase reporter, 293T cells, aldosterone-stimulated). To be noted: antagonism of MR trans-activation induced by 0.4 nM aldosterone. How it is done: The MR antagonist activity of the compounds is determined in a mammalian two hybrid reporter system. The N-terminus of MR (MR-NT, sequence coding amino acid 1-597) is fused to the activation domain of the VP16 gene. The ligand binding domain of MR (MR-LBD, sequence encoding amino acid 672-984) is fused to the DNA binding domain of the yeast Gal4 gene. The MR gene is cloned from a human kidney cDNA library with PCR.
The assay is performed in 384 well plates. Briefly, 293T cells (ATCC) are transfected with expression vectors for Gal-4-MR-LBD and VP16-MR NT, and a luciferase reporter vector containing Gal4 binding sequence (pG5-Luc). Cells are plated in 384 well plates immediately after transfection (approximately 3×10^4 cells/well in 50 μl medium). The medium is supplemented with 3% charcoal-dextran treated fetal bovine serum (Hyclone). Twenty four hours after transfection, compounds prepared in DMSO are transferred to the cells. The cells are then stimulated with 0.4 nM final concentration of aldosterone (Acros) and incubated at 37° C. for another 24 hours before the luciferase activity is assayed with 20 μl of Bright-Glo (Promega) using a luminometer (CLIPR). The expression of luciferase is used as an indicator of aldosterone-induced MR trans-activation. Each compound is tested in duplicates with 12-concentration titration. IC50 values (defined as the concentration of test compound required to antagonize 50% of aldosterone-induced MR activity) are determined from the dose-response curve.
For orientation: Reporter assays use an easily measured gene product as a stand-in for the process of interest.

Another assay addresses T3, PR (Homo sapiens, UniProt P06401).
T3 sequence (P06401 1-933): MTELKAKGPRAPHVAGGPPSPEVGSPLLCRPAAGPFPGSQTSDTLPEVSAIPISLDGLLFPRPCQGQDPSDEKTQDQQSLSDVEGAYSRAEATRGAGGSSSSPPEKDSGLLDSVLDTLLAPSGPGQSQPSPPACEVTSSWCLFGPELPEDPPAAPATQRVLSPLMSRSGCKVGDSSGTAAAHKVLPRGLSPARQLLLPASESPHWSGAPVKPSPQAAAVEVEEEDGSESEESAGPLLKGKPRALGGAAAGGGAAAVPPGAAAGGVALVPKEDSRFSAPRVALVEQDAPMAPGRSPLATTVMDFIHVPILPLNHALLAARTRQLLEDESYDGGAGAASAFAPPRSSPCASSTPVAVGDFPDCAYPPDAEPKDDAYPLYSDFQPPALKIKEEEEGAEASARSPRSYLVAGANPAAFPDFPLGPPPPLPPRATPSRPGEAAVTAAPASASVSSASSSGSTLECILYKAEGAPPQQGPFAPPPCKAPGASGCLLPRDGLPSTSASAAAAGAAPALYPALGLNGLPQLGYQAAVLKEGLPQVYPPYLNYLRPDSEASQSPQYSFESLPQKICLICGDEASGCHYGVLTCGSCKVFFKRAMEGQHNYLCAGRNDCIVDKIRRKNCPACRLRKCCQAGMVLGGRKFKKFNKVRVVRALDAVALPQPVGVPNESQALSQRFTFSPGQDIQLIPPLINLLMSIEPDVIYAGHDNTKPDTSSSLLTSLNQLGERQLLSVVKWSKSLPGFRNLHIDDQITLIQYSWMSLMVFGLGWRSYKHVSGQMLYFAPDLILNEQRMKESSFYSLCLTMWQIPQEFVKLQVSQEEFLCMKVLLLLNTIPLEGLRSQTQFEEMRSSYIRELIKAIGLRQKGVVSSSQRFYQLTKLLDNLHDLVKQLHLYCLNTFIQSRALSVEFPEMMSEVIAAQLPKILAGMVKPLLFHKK
The experiment in a line: Functional assay of progesterone receptor antagonism (progesterone-induced alkaline phosphatase activity in T-47D cells). As to conditions: antagonism of PR activity induced by 3 nM progesterone. The method, then:
The PR antagonist activity of the compounds is determined by progesterone-induced alkaline phosphatase activity in the T-47D cell line (ATCC). In the T-47D breast cancer cells, progesterone specifically induces de novo synthesis of a membrane-associated alkaline phosphatase enzyme in a time and dose-dependent manner (Di Lorenzo et al., Cancer Research, 51: 4470-4475 (1991)). The alkaline phosphatase enzymatic activity can be measured with a chemiluminescent substrate, such as CSPD® (Applied Biosystems). The assay is performed in 384 well plates. Briefly, T-47D cells are plated in 384 well plates at a density of approximately 2.5×10^4 cells/well in 50 μl medium supplemented with 10% fetal bovine serum. Twenty four hours later, the medium is aspirated. New medium that is free of phenol red and serum is added to the cells. Compounds prepared in DMSO are transferred to the cells. The cells are then stimulated with 3 nM final concentration of progesterone (Sigma) and incubated at 37° C. for another 24 hours before the alkaline phosphatase is assayed with 25 μl of CSPD® (Applied Biosystems) using a luminometer (CLIPR). The expression of alkaline phosphatase is used as an indicator of progesterone-induced PR trans-activation. Each compound is tested in duplicates with a 12-concentration titration. […]

For a further assay, the target named is T4, GR (Homo sapiens, UniProt P04150).
T4 construct: expressed in transfected cells; host or cells: COS-7 cells
T4 sequence (P04150 541-777): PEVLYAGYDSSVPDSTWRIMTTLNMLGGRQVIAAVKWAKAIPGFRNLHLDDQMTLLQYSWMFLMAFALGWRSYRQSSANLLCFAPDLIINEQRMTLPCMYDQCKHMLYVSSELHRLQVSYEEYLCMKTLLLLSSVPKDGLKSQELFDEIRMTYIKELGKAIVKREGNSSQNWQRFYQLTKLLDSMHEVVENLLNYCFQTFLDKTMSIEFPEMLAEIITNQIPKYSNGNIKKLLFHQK
The experiment in a line: Functional assay of glucocorticoid receptor antagonism (Gal4-GR-LBD luciferase reporter, COS-7 cells, dexamethasone-stimulated). To be noted: antagonism of GR trans-activation induced by 10 nM dexamethasone. The method, then: The GR antagonist activity of the compounds is determined in a mammalian two hybrid reporter system. The ligand binding domain of GR (GR-LBD, sequence encoding amino acid 541-778) is fused to the DNA binding domain of the yeast Gal4 gene. The GR gene is cloned from a human lung cDNA library with PCR.
The assay is performed in 384 well plates: COS-7 cells (ATCC) are transfected with expression vectors for Gal-4-GR-LBD and a luciferase reporter vector containing Gal4 binding sequence (pG5-Luc). Cells are plated in 384 well plates immediately after transfection (approximately 8000 cells/well in 50 μl medium). The medium is supplemented with 3% charcoal-dextran treated fetal bovine serum (Hyclone). Twenty four hours after transfection, compounds prepared in DMSO are transferred to the cells. The cells are then stimulated with 10 nM final concentration of dexamethasone (Sigma) and incubated at 37° C. for another 24 hours before the luciferase activity is assayed with 20 μl of Bright-Glo (Promega) using a luminometer (CLIPR). The expression of luciferase is used as an indicator of dexamethasone-induced GR trans-activation. Each compound is tested in duplicates with a 12-concentration titration. IC50 values (defined as the concentration of test compound required to antagonize 50% of dexamethasone-induced GR activity) are determined from the dose-response curve.

The IC50 is the concentration at which inhibition is half-maximal. Lower therefore signals greater potency in that assay. Regarding `Cc1ccccc1/C=C/c1ccc2c(c1)NC(=O)CO2` [6-(2-o-tolyl-vinyl)-4H-benzo[1,4]oxazin-3-one], the IC50 is 138 nM against AR and 54 nM at MR.

In turn, `CC(=O)Oc1ccc(CCc2ccc3c(c2)NC(=O)CO3)c(C)c1` [acetic acid 3-methyl-4-[2-(3-oxo-3,4-dihydro-2H-benzo[1,4]oxazin-6-yl)-ethyl]-phenyl ester] registered an IC50 on MR below 2 nM.

Take `Cc1c(-c2csc(-c3ccccc3C(F)(F)F)n2)ccc2c1NC(=O)CO2` [5-Methyl-6-[2-(2-trifluoromethyl-phenyl)-thiazol-4-yl]-4H-benzo[1,4]oxazin-3-one]: the concentration for half-maximal inhibition (IC50) against AR was 52 nM; against MR, 162 nM; against PR it was above 20000 nM; at GR, above 10000 nM.

For `Cc1cccc(-c2ccc3c(c2C)NC(=O)CO3)c1` [5-Methyl-6-m-tolyl-4H-benzo[1,4]oxazin-3-one], the IC50 came out at 47 nM against MR and 22 nM on PR.

Take `CC(=O)Oc1ccc(CCc2cc(C)c3c(c2)NC(=O)CO3)c(C)c1` [Acetic acid 3-methyl-4-[2-(8-methyl-3-oxo-3,4-dihydro-2H-benzo[1,4]oxazin-6-yl)-ethyl]-phenyl ester]: the IC50 at MR amounted to 1.3 nM; against GR, 210 nM.
